The record followed here is US12454531B2, “Substituted piperazine derivatives useful as T cell activators” (BRISTOL-MYERS SQUIBB COMPANY, priority 2019, dated 2025).

Read-outs that look alike come from different tables or passages of the source.

One may read the EC50 as the concentration needed to bring the measured effect to its halfway point. By IC50 is commonly meant the concentration needed to halve the response being measured.

For one assay, the system named is Human whole blood IFN-γ. Briefly: Assay 10: Human Whole Blood IFN-γ Assay. It is filed as cell-based. The conditions noted are these: anti-CD3 and anti-CD28 stimulation, 100% = 3 μM reference compound, read-out: INFg Whole Blood Normalized Agonist EC50. On the procedure:
Assay 10: Human Whole Blood IFN-γ Assay
Human venous whole blood (22.5 μL per well), obtained from healthy donors, was pre-treated with compounds for one hour at 37° C. in a humidified 95% air/5% CO2 incubator. The blood was stimulated with 2.5 μL anti-human CD3 and anti-CD28 mAb at a final concentration of 1 μg/mL each for 24 hours at 37° C. IFN-7 in the supernatants was measured using AlphLISA kit (Cat #AL217).

The test system of a further assay is Human whole blood pERK. As to the kind of experiment: Assay 11: DGK Human Whole Blood pERK Assay. The format is cell-based. Particulars: anti-CD3 stimulation, pERK positive within CD8 positive population, starting concentration 20 μM, read-out: DGK HWB pERK IC50. The protocol: Assay 11: DGK Human Whole Blood pERK Assay
Human whole blood ERK phosphorylation assay was performed with human venous whole blood obtained from healthy donors (drawn with Heparin as anti-coagulant). Serial dilutions of compounds (11 points, 3-fold) in DMSO were added to 384 well plates at 20 nL/well using an ECHO 550 acoustic dispenser (Labcyte) to achieve final starting concentration of 20 μM in assay. Heparinized human whole blood was added to the compound plate at 9 μL per well and incubated for one hour at 37° C. in a humidified 95%, air/5% CO2 incubator. After one hour of compound incubation, 1 μL of human anti-CD3 antibody (in-house) in the presence of cross-linking antibody goat anti-mouse IgG (4 μg/mL) was added to the well at 1 μg/mL final concentration for stimulation of pathway and additionally incubated for 15 minutes at 37° C. Stimulation was stopped by adding 90 μL Fix/Lyse buffer (BD 558049). Cells were washed and stained with anti-CD8 PE (BD 555635) antibodies for 60 minutes at room temperature, washed again, and permeabilized on ice using Perm III buffer (BD 558050) for 30 minutes. Cells were then stained with an Alexa Fluor® 647 anti-ERK1/2 Phospho (Thr202/Tyr204) Antibody (Bioleged 675504) for 60 minutes at 1:50 dilution. Samples were washed and resuspended in dPBS containing 1% BSA (dPBS, Gibco 14190136; BSA, Sigma-Aldrich A9205). Samples analyzed using the Intellicyt® iQue Screener PLUS. The pERK activation was quantitated by the percentage of pERK positive population within CD8 positive population.

Assay [1] deals with T1, DGKα (Homo sapiens (Human), UniProt P23743). Briefly: Assay 2: In Vitro DGK Inhibition Assays, Method B (DGKα ADPGLO). The conditions noted are these: 150 μM ATP. It is filed as biochemical. On the procedure: (§1) Assay 2: In Vitro DGK Inhibition Assays—Method B
(§2) The DGKα and DGKζ reactions were performed using either extruded liposome (DGKα and DGKζ LIPGLO assays) or detergent/lipid micelle substrate (DGKα and DGKζ assays). The reactions were carried out in 50 mM MOPS pH 7.5, 100 mM NaCl, 10 mM MgCl2, 1 μM CaCl2), and 1 mM DTT (assay buffer). The reactions using a detergent/lipid micelle substrate also contained 50 mM octyl B-D-glucopyranoside. The lipid substrate concentrations were 11 mM PS and 1 mM DAG for the detergent/lipid micelle reactions. The lipid substrate concentrations were 2 mM PS, 0.25 mM DAG, and 2.75 mM PC for the extruded liposome reactions (5 mM total lipid). The reactions were carried out in 150 μM ATP. The enzyme concentrations for the DGKα and DGKζ were nM.
(§3) The compound inhibition studies were carried out as follows: 25 nL droplets of each test compound (top concentration 10 mM with 11 point, 3-fold dilution series for each compound) solubilized in DMSO were transferred to wells of a white 1536 well plate (Corning 3725). A 5 mL enzyme/lipid substrate solution at 2× final reaction concentration was prepared by combining 2.5 mL 4× enzyme solution (20 nM DGKα or DGKζ (prepared as described below) in assay buffer) and 2.5 mL of either 4× liposome or 4× detergent/lipid micelle solution (compositions described below) and incubated at room temperature for 10 minutes. Next, 1 μL 2× enzyme/lipid substrate solution was added to wells containing the test compound and reactions were initiated with the addition of 1 μL 300 uM ATP. The reactions were allowed to proceed for 2 hr, after which 2 μL Glo Reagent (Promega V9101) was added and incubated for 40 minutes. Next, 4 μL Kinase Detection Reagent was added and incubated for 30 minutes. Luminescence was recorded using an EnVision microplate reader. […] The compounds were evaluated at 11 concentrations to determine IC50.
The detergent/lipid micelle was prepared by combining 15 g phosphatidylserine (Avanti 840035P) and 1 g diacylglycerol (8008110) and dissolving into 150 mL chloroform in a 2 L round bottom flask. Chloroform was removed under high vacuum by rotary evaporation. The resulting colorless, tacky oil was resuspended in 400 mL 50 mM MOPS pH 7.5, 100 mM NaCl, 20 mM NaF, 10 mM MgCl2, 1 μM CaCl2), 1 mM DTT, and 200 mM octyl glucoside by vigorous mixing. The lipid/detergent solution was split into 5 mL aliquots and stored at −80° C.
The lipid composition was 5 mol % DAG (Avanti 8008110), 40 mol % PS (Avanti 840035P), and 55 mol % PC (Avanti 850457) at a total lipid concentration of […] for the liposome solution. The PC, DAG, and PS were dissolved in chloroform, combined, and dried in vacuo to a thin film. The lipids were hydrated to 20 mM in 50 mM MOPS pH 7.5, 100 mM NaCl, 5 mM MgCl2, and were freeze-thawed five times. The lipid suspension was extruded through a 100 nm polycarbonate filter 10-12 times. Dynamic light scattering was carried out to confirm liposome size (50-60 nm radius). The liposome preparation was stored at 4° C. for as long as four weeks.
Human MA-hDGKα-(S9-S727)-Ct-TVMV-His-pFBgate and full length human DGK-ζ-transcript variant-2-TVMV-His-pFBgate baculovirus samples were generated using the Bac-to-Bac baculovirus expression system (Invitrogen) according to the manufacturer's protocol (note: MA- in name of DGKα reagents indicates two extra amino acids added prior to Ser-9). The DNA used for expression of the DGK-α(9-727) and DGK-C have SEQ ID NOs: 5 and 3, respectively. […]
Target sequence in this assay (P23743 other isoform, or with tags, fused parts or gaps): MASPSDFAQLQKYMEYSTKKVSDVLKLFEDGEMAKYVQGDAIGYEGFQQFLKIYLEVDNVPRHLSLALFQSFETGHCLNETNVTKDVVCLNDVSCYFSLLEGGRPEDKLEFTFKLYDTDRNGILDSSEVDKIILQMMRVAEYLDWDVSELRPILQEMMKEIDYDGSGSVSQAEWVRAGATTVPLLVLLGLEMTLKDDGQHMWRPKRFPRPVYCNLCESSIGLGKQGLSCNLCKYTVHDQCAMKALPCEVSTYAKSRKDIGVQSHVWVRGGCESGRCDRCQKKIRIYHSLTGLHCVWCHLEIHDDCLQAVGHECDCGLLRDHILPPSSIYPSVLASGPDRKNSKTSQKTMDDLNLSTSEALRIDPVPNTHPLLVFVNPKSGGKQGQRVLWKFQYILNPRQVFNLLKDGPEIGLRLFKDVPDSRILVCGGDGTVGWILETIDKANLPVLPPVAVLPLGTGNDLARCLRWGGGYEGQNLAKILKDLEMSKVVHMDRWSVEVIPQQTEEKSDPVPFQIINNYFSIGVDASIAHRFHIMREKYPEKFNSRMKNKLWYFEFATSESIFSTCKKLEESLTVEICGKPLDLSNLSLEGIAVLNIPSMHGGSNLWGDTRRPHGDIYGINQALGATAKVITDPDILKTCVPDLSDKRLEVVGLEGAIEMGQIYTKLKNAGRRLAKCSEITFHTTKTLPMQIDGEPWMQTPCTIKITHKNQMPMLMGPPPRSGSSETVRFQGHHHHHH

The target in the next assay is DGKζ (Homo sapiens (Human), UniProt Q13574). Briefly: Assay 1 or 2: In Vitro DGK Inhibition Assays (DGKζ LIPGLO, extruded liposome). Particulars: extruded liposome substrate, 150 μM ATP. It is filed as biochemical. The protocol: (§4) Assay 1: In Vitro DGK Inhibition Assays—Method A
DGKζ, sequence (Q13574 other isoform, or with tags, fused parts or gaps): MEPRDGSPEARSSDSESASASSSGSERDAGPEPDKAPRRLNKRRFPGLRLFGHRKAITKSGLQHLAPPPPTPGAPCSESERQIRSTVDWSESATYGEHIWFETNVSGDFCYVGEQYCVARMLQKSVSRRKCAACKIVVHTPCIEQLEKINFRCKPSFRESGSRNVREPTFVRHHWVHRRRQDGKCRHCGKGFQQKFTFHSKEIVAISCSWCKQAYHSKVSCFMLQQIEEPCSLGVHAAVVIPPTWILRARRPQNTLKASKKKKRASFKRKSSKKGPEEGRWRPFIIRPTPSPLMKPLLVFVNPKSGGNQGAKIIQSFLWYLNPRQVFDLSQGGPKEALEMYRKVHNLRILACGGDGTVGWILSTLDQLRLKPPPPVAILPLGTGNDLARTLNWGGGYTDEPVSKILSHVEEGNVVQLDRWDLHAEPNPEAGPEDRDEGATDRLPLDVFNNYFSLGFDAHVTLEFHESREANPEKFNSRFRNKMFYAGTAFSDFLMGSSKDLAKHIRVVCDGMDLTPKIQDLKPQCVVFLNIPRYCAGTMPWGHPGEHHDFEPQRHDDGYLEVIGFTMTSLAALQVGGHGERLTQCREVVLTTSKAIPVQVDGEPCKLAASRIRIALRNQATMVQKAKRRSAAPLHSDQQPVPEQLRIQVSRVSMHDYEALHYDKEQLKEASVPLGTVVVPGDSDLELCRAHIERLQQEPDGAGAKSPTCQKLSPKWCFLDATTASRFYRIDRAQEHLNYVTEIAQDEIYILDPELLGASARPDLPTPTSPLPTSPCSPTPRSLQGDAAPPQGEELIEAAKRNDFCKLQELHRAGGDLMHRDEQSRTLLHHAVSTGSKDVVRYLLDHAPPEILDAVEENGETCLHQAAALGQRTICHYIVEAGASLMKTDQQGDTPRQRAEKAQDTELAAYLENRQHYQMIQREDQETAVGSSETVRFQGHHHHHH
as §2, with “reactions.” for “reactions (5 mM total lipid).”, “5 nM” for “nM.”
as §3, with “follows: 50” for “follows: 25”, “mL enzyme/substrate” for “mL enzyme/lipid substrate”, “2× enzyme/substrate” for “2× enzyme/lipid substrate”, “for 1” for “for 2”
(§5) The lipid composition was 5 mol % DAG (Avanti 8008110), 40 mol % PS (Avanti 840035P), and 55 mol % PC (Avanti 850457) at a total lipid concentration of 15.2 mg/mL for the 4× liposome solution. The PC, DAG, and PS were dissolved in chloroform, combined, and dried in vacuo to a thin film. The lipids were hydrated to 20 mM in 50 mM MOPS pH 7.5, 100 mM NaCl, 5 mM MgCl2, and were freeze-thawed five times. The lipid suspension was extruded through a 100 nm polycarbonate filter eleven times. […] The liposome preparation was stored at 4° C. for as long as four weeks.
(§6) Baculovirus amplification was achieved using infected Sf9 cells at 1:1500 virus/cell ratios, and grown for 65 hours at 27° C. post-transfection.
(§7) The cells were lysed using nitrogen cavitation method with a nitrogen bomb (Parr Instruments), and the lysates were clarified by centrifugation. […] The three steps column chromatography included nickel affinity resin capture (i.e. HisTrap FF crude, GE Healthcare), followed by size exclusion chromatography (i.e. HiLoad 26/600 Superdex 200 prep grade, GE Healthcare for DGK-alpha, and HiPrep 26/600 Sephacryl S 300_HR, GE Healthcare for DGK-zeta). The third step was ion exchange chromatography, and differed for the two isoforms. DGKα was polished using Q-Sepharose anion exchange chromatography (GE Healthcare). DGKζ was polished using SP Sepharose cation exchange chromatography (GE Healthcare). The proteins were delivered at concentrations of ≥2 mg/mL. The formulation buffers were identical for both proteins: 50 mM Hepes, pH 7.2, 500 mM NaCl, 10% v/v glycerol, 1 mM TCEP, and 0.5 mM EDTA.
as §1
The DGKα and DGKζ reactions were performed using either extruded liposome (DGKα and DGKζ LIPGLO assays) or detergent/lipid micelle substrate (DGKα and DGKζ assays).

In assay [2] the target is T1, DGKα. As to the kind of experiment: Assay 1: In Vitro DGK Inhibition Assays, Method A (DGKα LIPGLO, extruded liposome). Particulars: extruded liposome substrate, 150 μM ATP. It is filed as biochemical. On the procedure: as §4
as §2, with “reactions.” for “reactions (5 mM total lipid).”, “5 nM” for “nM.”
as §3, with “follows: 50” for “follows: 25”, “mL enzyme/substrate” for “mL enzyme/lipid substrate”, “2× enzyme/substrate” for “2× enzyme/lipid substrate”, “for 1” for “for 2”
as §5, §6, §7
Target sequence in this assay (P23743 whole entry): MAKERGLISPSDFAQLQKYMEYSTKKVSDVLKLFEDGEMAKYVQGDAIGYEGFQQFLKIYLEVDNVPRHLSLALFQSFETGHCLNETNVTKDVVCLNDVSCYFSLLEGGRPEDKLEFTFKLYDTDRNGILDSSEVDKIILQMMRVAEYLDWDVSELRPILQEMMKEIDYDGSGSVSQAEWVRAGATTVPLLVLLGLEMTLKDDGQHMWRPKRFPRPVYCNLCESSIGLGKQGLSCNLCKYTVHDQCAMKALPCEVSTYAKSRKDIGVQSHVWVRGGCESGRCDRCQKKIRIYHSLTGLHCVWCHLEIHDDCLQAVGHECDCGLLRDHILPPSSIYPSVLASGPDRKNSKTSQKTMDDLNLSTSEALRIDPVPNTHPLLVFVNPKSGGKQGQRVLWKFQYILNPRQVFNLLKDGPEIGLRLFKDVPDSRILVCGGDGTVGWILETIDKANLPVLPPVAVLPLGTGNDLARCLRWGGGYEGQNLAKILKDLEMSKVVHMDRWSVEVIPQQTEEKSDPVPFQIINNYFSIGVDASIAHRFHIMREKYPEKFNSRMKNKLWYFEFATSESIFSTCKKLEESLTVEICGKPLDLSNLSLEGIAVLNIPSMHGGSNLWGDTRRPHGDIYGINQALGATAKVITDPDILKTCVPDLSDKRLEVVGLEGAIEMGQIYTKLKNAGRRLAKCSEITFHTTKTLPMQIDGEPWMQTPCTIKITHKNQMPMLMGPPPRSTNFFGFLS

As to `CC(C)OC(=O)C(c1ccc(F)cc1)N1C[C@H](C)N(c2cc(=O)n(C)c3ccc(C#N)nc23)C[C@H]1C` (single isomer, unassigned) [Example 2], the EC50 with Human whole blood IFN-γ (24 hours) came to 0.06 µM. The IC50 in the assay on Human whole blood pERK (Homo sapiens, CD8 positive) was determined as 0.08 µM.

Turning to `CC[C@H]1CN(C(C(=O)NCCOC)c2ccc(C(F)(F)F)cc2)[C@H](CC)CN1c1nc(=O)n(C)c2ccc(C#N)nc12` (single isomer, unassigned) [Example 55], the midpoint of inhibition on DGKα [1], the IC50, lay at 0.01 µM.

`C#CCCC1(CCCOC(=O)C(c2ccc(OC)cc2)N2C[C@H](C)N(c3nc(=O)n(C)c4ccc(C#N)nc34)C[C@H]2C)N=N1` (single isomer, unassigned) [Example 60]: the IC50 against DGKα [1] came to 0.18 µM.

Take `C[C@@H]1CN(c2cc(=O)n(C)c3ccc(C#N)nc23)[C@@H](C)CN1C(C(=O)Nc1ccn(C)n1)c1ccc(F)cc1` (stereo partly drawn) [Example 15, 2-((2R,5S)-4-(6-cyano-1-methyl-2-oxo-1,2-dihydro-1,5-naphthyridin-4-yl)-2,5-dimethylpiperazin-1-yl)-2-(4-fluorophenyl)-N-(1-methyl-1H-pyrazol-3-yl)acetamide]: the IC50 against DGKζ turned out to be 9.84 µM; against DGKα [2], 279 µM; with Human whole blood pERK, 20 µM. The concentration for a half-maximal effect (EC50) in the assay with Human whole blood IFN-γ (Homo sapiens, 24 h) stood at 20 µM.

As for `C[C@@H]1CN(c2cc(=O)n(C)c3ccc(C#N)nc23)[C@@H](C)CN1C(C(=O)Nc1ccn(C)n1)c1ccc(F)cc1` (stereo partly drawn) [Example 16, 2-((2R,5S)-4-(6-cyano-1-methyl-2-oxo-1,2-dihydro-1,5-naphthyridin-4-yl)-2,5-dimethylpiperazin-1-yl)-2-(4-fluorophenyl)-N-(1-methyl-1H-pyrazol-3-yl)acetamide], the IC50 was 1.34 µM against DGKζ, 0.5 µM at DGKα [2] and 5.93 µM in the assay with Human whole blood pERK. For the same molecule, in the assay with Human whole blood IFN-γ (24 hours), the EC50 is 14.4 µM.

Consider `CNC(=O)C(c1ccc(F)cc1)N1C[C@H](C)N(c2cc(=O)n(C)c3ccc(C#N)nc23)C[C@H]1C` (stereo partly drawn) [Example 26, 2-((2R,5S)-4-(6-cyano-1-methyl-2-oxo-1,2-dihydro-1,5-naphthyridin-4-yl)-2,5-dimethylpiperazin-1-yl)-2-(4-fluorophenyl)-N-methylacetamide], for which, in the assay on Human whole blood IFN-γ (24 hours), the EC50 turned out to be 20 µM. The IC50 in the assay with Human whole blood pERK (Homo sapiens, CD8 positive) was determined as 13.1 µM.

Regarding `CC(C)N(C)C(=O)CC(c1ccc(F)cc1)N1C[C@H](C)N(c2cc(=O)n(C)c3ccc(C#N)nc23)C[C@H]1C` (stereo partly drawn) [Example 41, 3-[(2R,5S)-4-(6-cyano-1-methyl-2-oxo-1,2-dihydro-1,5-naphthyridin-4-yl)-2,5-dimethylpiperazin-1-yl]-3-(4-fluorophenyl)-N-methyl-N-(propan-2-yl)propanamide], the IC50 on DGKζ came to 0.39 µM; on DGKα [2] it was 1.14 µM; in the assay on Human whole blood pERK (Homo sapiens, CD8 positive) it was 0.41 µM. The EC50 in the assay on Human whole blood IFN-γ (Homo sapiens, 24 h) amounted to 1.59 µM.
